“Also recorded” adds a separate entry of the source.
Experiments:
[1] = tested on: wild-type Saccharomyces cerevisiae CEN.PK113-7D yeast strain; test: Yeast cell growth (OD600) in SD medium; assay type: cell-based; details: 0 to 8 mM; 24, 48 and 72 hours
Experimental: (§1) Yeast strain was recovered from frozen glycerol stock at 30° C. on YPD agar medium. Yeast was left to propagate in SD medium overnight at 30° C. with shaking at 220 revolutions per minute (rpm). Cells propagated overnight were diluted to a starting optical density at 600 nm (OD600) of approximately 0.2 in fresh SD medium to begin the chronological lifespan (CLS) experiments.
CLS experiments were performed in 96-well plates with 200 μL yeast culture. Cellular inoculums were transferred into 96-well plates containing serially double-diluted concentrations (0 to 10 nM) of rapamycin. Cellular inoculum was transferred into 96-well plates containing serially double-diluted concentrations (0 to 8 mM) of 2,5-anhydro-D-mannitol, D-fructose, D-mannitol, D-maltose, and D-sorbitol in SD medium. Cells were incubated at 30° C., and the growth was measured at different time points. The growth time point 72 hours was considered as Day 1 for the CLS assay. Cell survival was quantified at various age time points by three different approaches: (i) PI fluorescence-based method, (ii) outgrowth in YPD liquid medium, and (iii) spotting assay (FIG. 1).
Firstly, the effect of 2,5-AM on cell growth was determined. Yeast cells were incubated with varying concentrations of 2,5-AM in the SD medium. Cell growth was measured at different time points (24 hours, 48 hours, and 72 hours). […] Then, the survival of chronologically aged cells supplemented with different concentrations of 2,5-AM was measured using the PI fluorescence method. At each chronological age point, a 3 μL culture was transferred to a second 96-well plate containing 200 μL YPD medium. The 72-hour growth culture was considered Day 1 for the CLS analysis. The viability fraction was calculated, and a survival graph was plotted for different chronological age time points (FIG. 5). […] The survival of aged cells supplemented with 2,5-AM (4 mM and 8 mM) on Day 4 was approximately 80%. However, the survival of aged cells without 2,5-AM was approximately 50%. On Day 7, survival of 2,5-AM supplemented aged cells was approximately 75%. However, the survival of aged cells without 2,5-AM was reduced to less than 20%.
Firstly, the effect of fructose, mannitol, maltose, and sorbitol on cell growth was tested. Yeast cells were incubated with various concentrations of fructose, mannitol, maltose, and sorbitol similar to 2,5-AM in the SD medium. […] Next, the survival of chronologically aged cells on day 1, day 7, day 14, and day 21 was measured. […] Aged cells supplemented with 2,5-AM (8 mM) survived (approximately 65%) on Day 21. However, the survival of aged cells without 2,5-AM supplementation was less than 10%.

[2] = tested on: wild-type Saccharomyces cerevisiae CEN.PK113-7D yeast strain; test: Chronological lifespan analysis in yeast (PI, outgrowth, spotting); assay type: cell-based
Experimental: as §1
CLS experiments were performed in 96-well plates with 200 μL yeast culture. Cellular inoculums were transferred into 96-well plates containing serially double-diluted concentrations (0 to 10 nM) of rapamycin. […] Cells were incubated at 30° C., and the growth was measured at different time points. The growth time point 72 hours was considered as Day 1 for the CLS assay. Cell survival was quantified at various age time points by three different approaches: (i) PI fluorescence-based method, (ii) outgrowth in YPD liquid medium, and (iii) spotting assay (FIG. 1).
Yeast cells (40 μL) from different age time points were transferred into a second 96-well plate (different to the 96-well plate in which the CLS analysis as outlined above was performed). Cells were washed and incubated in 100 μL 1×phosphate buffered saline (PBS) with propidium iodide (PI) (5 μg/mL) for 15 minutes in the dark. Positive and negative control samples were included for quantitative analysis. Positive control (cells boiled at 100° C. for 15 minutes) was PI-stained and processed in the same 96-well plate. Samples without PI-stained cells served as the negative control. After incubation, cells were washed and resuspended in 100 μL PBS. The fluorescence reading of the samples (excitation and emission wavelengths at 535 nm and 617 nm, respectively) and OD600 were measured with a microplate reader (BioTek, Winooski, Vermont, United States). The fluorescence intensity of each sample was normalized with OD600. The background fluorescence signal of the unstained negative sample was subtracted from the normalized fluorescence intensity of each sample. The obtained fluorescence intensity of the positive control (boiled dead cells) was considered 0% cell survival. Cell death was validated by allowing the boiled dead cells to grow in medium. Cell survival at different age time points of samples were calculated by normalizing the fluorescence intensity with positive control sample (boiled cells).
Yeast stationary culture (3 μL) of different age time points were transferred to a second 96-well plate, containing 200 μL YPD medium, and incubated for 24 hours at 30° C. Outgrowth (OD600) of aged cells was measured by the microplate reader. Quantification of cell survival for each age point was determined as relative to Day 1 (considered 100% cell survival). This quantification was performed by using the formula,
Yeast stationary culture (3 μL) of different age time points were spotted onto a YPD agar plate and incubated for 48 hours at 30° C. The outgrowth of aged cells on the YPD agar plate was photographed using the Bio-Rad GelDoc Imaging System (Bio-Rad, Hercules, California, United States).

OC[C@H]1O[C@H](CO)[C@@H](O)[C@@H]1O [2,5-AM, 2,5-anhydro-D-mannitol]
cell growth [1]: reached the same saturation level after 24 hours; also recorded: did not affect cell growth | effect on yeast CLS ([2]; 0 to 8 mM in SD medium, up to day 21): extended the CLS in a concentration-dependent manner; also recorded: extended the lifespan even at the late stage of chronological aging | survival of aged cells ([2]; 8 mM, Day 21, without compound less than 10%): approximately 65% | effect on yeast CLS ([2]; very low concentrations (2 mM)): increased CLS
